Measured values taken from patent US20060057669A1, “Inactive transcription factor tif-ia and uses thereof” (priority 2002, published 2006).

Key:
TIF-IA = assay: In vitro transcription assay of TIF-IA purified from treated HEK293T cells, in nuclear extracts from rapamycin-treated cells; assay type: biochemical; details: 1 hr; okadaic acid 1 μM or calyculin A 50 nM with rapamycin 20 nM
Description: Nuclear extracts from rapamycin-treated cells were supplemented with 30 and 90 ng of TIF-IA that was immunopurified from HEK293T cells co-expressing FLAG-tagged TIF-IA and either GST/myc-tagged wild-type S6K1 (lanes 2-5) or S6K1E389ANAC (lanes 6-9).
B) Transcriptional activity of TIF-IA mutants in vitro. TIF-IA was purified from cells that were mock-treated (lanes 2, 3), or treated for 1 hr with either okadaic acid (1 μM), rapamycin (20 nM), calyculin A (50 nM), or both okadaic acid or calyculin A and rapamycin as indicated. 30 ng (even numbers) and 90 ng (odd numbers except 1) of TIF-IA were assayed for their capability to restore transcription of nuclear extracts from rapamycin-treated cells.
If S6K1 or S6K1-activated kinases were the only pathways that target TIF-IA and mediate mTOR-dependent regulation of Pol I transcription, then rapamycin should not inactivate TIF-IA if a rapamycin-resistant S6K1 mutant was co-expressed. This, however, was not the case.
Two mechanisms could be responsible for the decreased phosphorylation of S44 after rapamycin treatment, e.g., inhibition of the respective kinase or activation of a counteracting phosphatase. […] If PP2A dephosphorylates and thus inactivates TIF-IA, inhibition of PP2A should protect TIF-IA from inactivation by rapamycin. […]

Pol I transcription [1] = assay: In vitro transcription: TIF-IA mutants restoring rDNA transcription of nuclear extract from density-arrested FM3A cells; assay type: biochemical, murine; details: S633/S649 mutants; 20 and 40 ng
Description: (A) Transcriptional activity of TIF-IA mutants in vitro. FLAG-tagged wild-type TIF-IA and the indicated single or double point mutants were overexpressed in HEK293T cells, immunopurified, and 20 and 40 ng were assayed for their capability to restore rDNA transcriptional activity of nuclear extract from density-arrested FM3A cells. The amount and purity of TIF-IA were estimated on silver-stained SDS-polyacrylamide gels and Western blots (data not shown).
(A) Transcriptional activity of TIF-IAS199A and TIF-IAS199D in vitro. FLAG-tagged wild-type TIF-IA and the indicated mutants were immunopurified from HEK293T cells, and 30 and 60 ng were assayed for their capability to restore transcriptional activity of nuclear extract from density-arrested FM3A cells. The amount and purity of TIF-IA were estimated on silver-stained SDS-polyacrylamide gels (data not shown).
(B) Transcriptional activity of TIF-IAS44A in vitro. FLAG-tagged wild-type TIF-IA and the indicated mutant were assayed for their transcriptional activity in vitro.
(§1) Nuclear extracts were prepared from exponentially growing (8×10^5 cells/ml), density-arrested or PD98059-treated (CN Bioscience, Bad Soden, Germany) 40 μM, 0.5 hr) or rapamycin-treated FM3A cells (ATCC, Manassas, USA). 25 μl assays contained 50 ng of template DNA (pMr600/EcoRI), 30 μg nuclear extract proteins and 12 mM Hepes-KOH, [pH8.0], 0.1 mM EDTA, 5 mM MgCl2, 80 mM KCl, 10 mM creatine phosphate, 12% (v/v) glycerol, 0.66 mM each of ATP, GTP and CTP, 0.01 mM UTP and 0.5 μCi [α-^32P]UTP (5000 Ci/mmol). After incubation for 60 min at 30° C., RNA was extracted and analyzed on non-denaturing 5% polyacrylamide gels
TIF-IA was immunopurified from untransfected NIH3T3 cells or from HEK293T cells overexpressing FLAG-tagged TIF-IA. 4×10^6 cells were lysed in 0.8 ml IP buffer (20 mM Tris-HCl [pH 7.4], 200 mM NaCl, 2 mM EDTA, 2 mM EGTA, 1% Triton X-100, 0.5 mM PMSF, 1 μg/ml aprotinin, 5 μg/ml leupeptin and 1 μg/ml pepstatin A), centrifuged at 10,000 g for 30 min, and the supernatants were incubated for 4 hr at 4° C. with either 10 μg anti-TIF-IA antibodies bound to 20 μl protein G-agarose or with anti-FLAG (M2) agarose (Sigma-Aldrich Corp., Missouri, USA). The immunocomplexes were successively washed with buffer AM (20 mM Tris-HCl [pH 8.0], 5 mM MgCl2, 0.1 mM EDTA, 20% glycerol) containing 400 and 100 mM KCl, respectively. The amount and purity of TIF-IA was estimated on silver-stained polyacrylamide gels and similar amounts of bead-bound TIF-IA were used in in vitro transcription assays. GST fusion proteins were expressed in E. coli BL21(DE3) and purified on Glutathione-Sepharose 4B according to the manufacturer's instructions.
To assess the functional relevance of S633 and S649 phosphorylation on transcriptional activity, the respective S→A and S→D single or double point mutants were purified from transfected cells and assayed for their capability to rescue transcription of extracts from density-arrested cells. […] Thus, phosphorylation of TIF-IA at S649 and S633 is required for transcriptional activity.
Phosphorylation of peptide a should inhibit TIF-IA activity, while phosphorylation of peptide b, e.g. S44, should augment TIF-IA activity.

Pol I transcription [2] = assay: In vitro transcription: TIF-IA mutants added to nuclear extract from exponentially growing FM3A cells; assay type: biochemical, murine; details: 20 and 40 ng added to 15 ug nuclear extract
Description: 20 and 40 ng of the indicated TIF-IA mutants were added to 15 ug nuclear extract from exponentially growing FM3A cells and rDNA transcription was assayed.
as §1
Given that phosphorylation of TIF-IA at serine 649 is essential for transcription, excess of TIF-IAS649A should impair Pol I transcription. To test this, we examined the effect of exogenous wild-type and mutant TIF-IA on transcriptional activity of extracts from exponentially growing cells.

HEK293T cells [3] = assay: Quantitative fluorimetric viability assay with calcein-AM; assay type: cell-based; details: 24, 36, 48 and 60 hr after transfection; 2 μM calcein-AM
Description: (B) Quantitative fluorimetric viability assay with calcein-AM. HEK293T cells were transfected with TIF-IA or the indicated point mutants. […] Viable cells were measured 24, 36, 48 and 60 hr after transfection by incubation with […] calcein-AM. The gradual increase in fluorescence intensity was recorded with a fluorescence multi-well plate reader for 20 min with an excitation wavelength of 485 nm and an emission wavelength of 530 nm. The proliferation rate of mock-transfected cells and cells overexpressing TIF-IA is shown at the left. Plots show the accumulation of calcein fluorescence (arbitrary units) against time. Growth rates calculated from linear regression curves are shown at the right. Values are presented as the mean±SD from three independent experiments performed in duplicates.
Conversion of calcein-AM (calcein acetoxymethyl ester, (CN Bioscience GmbH, Bad Soden, Germany) to calcein was used to measure cell proliferation. 12 hr after transfection, HEK293T cells were seeded to 96-well micro-plates at 1×10^4 cells/well. After 24, 36, 48 and 60 hr, cells were washed with PBS, incubated with 2 μM calcein-AM, and the gradual increase in fluorescence intensity within the cells was recorded by a fluorescence multi-well plate reader (CytoFluor Series 4000/TC, PerSeptive Biosystems, (Applied Biosystems, Forster City, USA) for 20 min in 1 min intervals. Excitation wavelength used for measurements of fluorescence was 485 nm with a bandwidth of 20 nm; emission wavelength was 530 nm with a bandwidth of 25 nm. Under the experimental conditions used, there is a direct correlation between the accumulation ratio of intracellular calcein fluorescence and the number of viable cells. The data from three independent experiments were analyzed by Sigmaplot and expressed as the mean±standard deviation. For statistical analysis, student's t test was used. Differences with a P<0.01 were considered statistically significant.
Given the functional significance of ERK/RSK-directed TIF-IA phosphorylation on Pol I transcription, mutations that enhance or abrogate TIF-IA activity may have a positive or negative effect on cell growth. To test this, HEK293T cells were transfected with cDNAs encoding wild-type or mutant TIF-IA which harbor single or double point mutations at S649 and S633. The expression of TIF-IA was estimated on Western blots and the cellular growth rate was measured by calcein-AM staining. Calcein-AM is a non-fluorescent, hydrophobic compound that is rapidly hydrolyzed by intracellular esterases releasing hydrophilic fluorescent calcein. Thus, cellular calcein fluorescence correlates with the amount of viable cells. […] Cells expressing FLAG-tagged wild-type or mutant TIF-IA were stained with FITC-conjugated anti-FLAG antibodies, identified by FACS and cell numbers were calculated by measuring the ratio of stained cells versus an internal standard. […] Conversely, the number of cells expressing TIF-IAS649A was 33% lower than the control. […] Taken together, the results reveal a striking correlation between phosphorylation of TIF-IA at serine 649, cellular rRNA synthetic activity and cell cycle progression.

HEK293T cells [4] = assay: Trypan blue staining; assay type: cell-based; details: data not shown
HEK293T cells [5] = assay: Cell enumeration by dual-parameter flow cytometry; assay type: cell-based; details: 60 hr after transfection
Description: (C) Cell enumeration by flow cytometry. HEK293T cells expressing wild-type TIF-IA or the S649 mutants were harvested 60 hours after transfection, stained with FITC-conjugated anti-FLAG M2 antibodies and analyzed by dual-parameter flow cytometry in a FACScan™ flow cytometer in the presence of CaliBRITE™ calibration beads. 60,000 events were recorded from each sample. The number of cells expressing FLAG-TIF-IA was calculated from the ratio between FITC-positive cells and counted beads.
HEK293T cells were harvested 60 hr after transfection with pcDNA-FLAG-TIF-IA, fixed with 2% paraformaldehyde and permeabilized with 0.1% Triton X-100 in PBS. […] Cell were analyzed with a FACSCan™ flow cytometer in the presence of CaliBRITE™ beads (Becton Dickinson, San Jose, USA). The number of cells expressing FLAG-TIF-IA was calculated from the ratio between FITC-positive cells and counted beads.
Given the functional significance of ERK/RSK-directed TIF-IA phosphorylation on Pol I transcription, mutations that enhance or abrogate TIF-IA activity may have a positive or negative effect on cell growth. […] The expression of TIF-IA was estimated on Western blots and the cellular growth rate was measured by calcein-AM staining. […] Thus, cellular calcein fluorescence correlates with the amount of viable cells. […]

HEK293T cells [6] = assay: Relative DNA content of sorted cells by FACS analysis; assay type: cell-based
Description: HEK293T cells were harvested 60 hr after transfection with pcDNA-FLAG-TIF-IA, fixed with 2% paraformaldehyde and permeabilized with 0.1% Triton X-100 in PBS. Transfected cells were labeled by incubation for 1 hr with 2 μg/ml FITC-conjugated anti-M2 antibodies (Sigma) and subsequently stained with […] propidium iodide (Sigma). Cell were analyzed with a FACSCan™ flow cytometer in the presence of CaliBRITE™ beads (Becton Dickinson, San Jose, USA). The number of cells expressing FLAG-TIF-IA was calculated from the ratio between FITC-positive cells and counted beads.
Given the functional significance of ERK/RSK-directed TIF-IA phosphorylation on Pol I transcription, mutations that enhance or abrogate TIF-IA activity may have a positive or negative effect on cell growth. To test this, HEK293T cells were transfected with cDNAs encoding wild-type or mutant TIF-IA which harbor single or double point mutations at S649 and S633. The expression of TIF-IA was estimated on Western blots and the cellular growth rate was measured by calcein-AM staining. […] Thus, cellular calcein fluorescence correlates with the amount of viable cells. […] Cells expressing FLAG-tagged wild-type or mutant TIF-IA were stained with FITC-conjugated anti-FLAG antibodies, identified by FACS and cell numbers were calculated by measuring the ratio of stained cells versus an internal standard. […]

HEK293T cells [7] = assay: Images of transfected HEK293T cells; assay type: cell-based; details: images taken after 48 h
Description: HEK293T cells were transfected with TIF-IA or TIFIAS649A, respectively, and images were taken after 48 h.

Row | Molecule | effect on inactivation of TIF-IA by rapamycin (TIF-IA) | capability to rescue transcription of extracts from density-arrested cells (Pol I transcription [1]) | effect on transcriptional activity of extracts from exponentially growing cells (Pol I transcription [2]) | effect on transcriptional activity of extracts from exponentially growing cells (Pol I transcription [2]; listed as S649A) | cellular growth rate by calcein-AM staining (HEK293T cells [3]) | cell viability as cause of growth inhibition (HEK293T cells [4]) | number of cells lower than the control (HEK293T cells [5]) | decrease of G2/M-phase cells (HEK293T cells [6]) | cell growth on images (HEK293T cells [7])
1 | COC[C@@H]([C@H](O)[C@H](O)C(=O)NCC[C@H](C)c1nc(/C=C/C[C@@H]2O[C@]3(C[C@@H](O)[C@@H]2C)O[C@H]([C@H](C[C@H](O)[C@H](C)[C@H](O)[C@H](C)/C=C(C)/C(C)=C/C=C/C(C)=C\C#N)OC)[C@H](OP(=O)(O)O)C3(C)C)co1)N(C)C [calyculin A] | prevented inactivation of TIF-IA by rapamycin |  |  |  |  |  |  |  | 
2 | TIF-IAS649A: TIF-IA point mutant, serine residue at position 649 replaced by an alanine residue |  | abolished TIF-IA activity | acts as a dominant-negative inhibitor of Pol I transcription | suppressed transcription well below the basal level | impaired cell growth | not due to decreased cell viability | 33% | 25% | retards cell growth
3 | C=C1[C@@H](O)[C@@H]2O[C@]3(CC[C@H](/C=C/[C@@H](C)[C@@H]4CC(C)=C[C@@]5(O[C@H](C[C@@](C)(O)C(=O)O)CC[C@H]5O)O4)O3)CC[C@H]2O[C@@H]1[C@@H](O)C[C@H](C)[C@H]1O[C@@]2(CCCCO2)CC[C@H]1C [okadaic acid] | prevented inactivation of TIF-IA by rapamycin |  |  |  |  |  |  |  | 
